Measured values taken from patent publication US12715848B2, “Process for the diastereomerically pure preparation of DL/LD-methionylmethionine” (Evonik Operations GmbH, priority 2020, dated 2026).
In brackets after ≈: the same amount, converted by molar mass. Residues, ends and D or L forms follow the SMILES beside them.

How the values were obtained:
[1] = Water solubility at room temperature
Minimum ignition energy = type: physicochemical
Dust content = type: physicochemical; conditions: fraction <63 μm
[2] = Determination of bulk density (1 L measuring cylinder); type: physicochemical
Protocol: The bulk density in kg/L was determined using a 1 L measuring cylinder, which was filled with the bulk material precisely to the 1000 ml mark, and was measured by weighing the weight of the contents so as to result in the bulk density directly.

Compound | water solubility [1] [mg/mL] | minimum ignition energy (Minimum ignition energy; 100° C.) | minimum ignition energy (Minimum ignition energy; room temperature) | dust content (Dust content) | bulk density [2] [kg/m^3]
CSCCC(N)C(=O)NC(CCSC)C(=O)O (stereo not drawn) [DDLL-Met-Met, DD/LL-methionylmethionine] (H-Met-Met-OH; configuration not given here) | 21.0 (≈ 74.9 mM) |  |  |  | 
CSCCC(N)C(=O)NC(CCSC)C(=O)O (stereo not drawn) [DLLD-Met-Met, DL/LD-methionylmethionine] (H-Met-Met-OH; configuration not given here) |  | above 3 mJ | above 10 mJ | approx. 10% | > 600
